What was measured:
Assay in all cases: biochemical
Assay type in all cases: biochemical
382 unique human kinases [1] = target: T1, 382 unique human kinases (Homo sapiens, UniProt P07949); conditions: kinase RET, compound 10 uM; for remaining activity at 10 µM: read-out: % Enzyme Activity (relative to DMSO controls)
T1 construct: purchased Reaction Biology (HotSpot contract assay)

382 unique human kinases [2] = target: T2, 382 unique human kinases (Homo sapiens, UniProt P22607, G697C); conditions: FGFR3 (G697C), 10 uM; for remaining activity at 10 µM: read-out: % Enzyme Activity (relative to DMSO controls)
T2 construct: purchased Reaction Biology (HotSpot contract assay)

382 unique human kinases [3] = target: T3, 382 unique human kinases (Homo sapiens, UniProt Q13164); conditions: kinase ERK5/MAPK7, compound 10 uM; for remaining activity at 10 µM: read-out: % Enzyme Activity (relative to DMSO controls)
T3 construct: purchased Reaction Biology (HotSpot contract assay)

382 unique human kinases [4] = target: T4, 382 unique human kinases (Homo sapiens, UniProt Q76MJ5); conditions: ERN2/IRE2, 10 uM; for remaining activity at 10 µM: read-out: % Enzyme Activity (relative to DMSO controls)
T4 construct: purchased Reaction Biology (HotSpot contract assay)

382 unique human kinases [5] = target: T5, 382 unique human kinases (Homo sapiens, UniProt P08581, T992I); conditions: c-MET (T992I), 10 uM; for remaining activity at 10 µM: read-out: % Enzyme Activity (relative to DMSO controls)
T5 construct: purchased Reaction Biology (HotSpot contract assay)

382 unique human kinases [6] = target: T6, 382 unique human kinases (Homo sapiens, UniProt P36888); conditions: FLT3, [ATP] 50 µM, compound 10 uM; for remaining activity at 10 µM: read-out: % Enzyme Activity (relative to DMSO controls)
T6 construct: purchased Reaction Biology (HotSpot contract assay)
T6 sequence (P36888 27-993): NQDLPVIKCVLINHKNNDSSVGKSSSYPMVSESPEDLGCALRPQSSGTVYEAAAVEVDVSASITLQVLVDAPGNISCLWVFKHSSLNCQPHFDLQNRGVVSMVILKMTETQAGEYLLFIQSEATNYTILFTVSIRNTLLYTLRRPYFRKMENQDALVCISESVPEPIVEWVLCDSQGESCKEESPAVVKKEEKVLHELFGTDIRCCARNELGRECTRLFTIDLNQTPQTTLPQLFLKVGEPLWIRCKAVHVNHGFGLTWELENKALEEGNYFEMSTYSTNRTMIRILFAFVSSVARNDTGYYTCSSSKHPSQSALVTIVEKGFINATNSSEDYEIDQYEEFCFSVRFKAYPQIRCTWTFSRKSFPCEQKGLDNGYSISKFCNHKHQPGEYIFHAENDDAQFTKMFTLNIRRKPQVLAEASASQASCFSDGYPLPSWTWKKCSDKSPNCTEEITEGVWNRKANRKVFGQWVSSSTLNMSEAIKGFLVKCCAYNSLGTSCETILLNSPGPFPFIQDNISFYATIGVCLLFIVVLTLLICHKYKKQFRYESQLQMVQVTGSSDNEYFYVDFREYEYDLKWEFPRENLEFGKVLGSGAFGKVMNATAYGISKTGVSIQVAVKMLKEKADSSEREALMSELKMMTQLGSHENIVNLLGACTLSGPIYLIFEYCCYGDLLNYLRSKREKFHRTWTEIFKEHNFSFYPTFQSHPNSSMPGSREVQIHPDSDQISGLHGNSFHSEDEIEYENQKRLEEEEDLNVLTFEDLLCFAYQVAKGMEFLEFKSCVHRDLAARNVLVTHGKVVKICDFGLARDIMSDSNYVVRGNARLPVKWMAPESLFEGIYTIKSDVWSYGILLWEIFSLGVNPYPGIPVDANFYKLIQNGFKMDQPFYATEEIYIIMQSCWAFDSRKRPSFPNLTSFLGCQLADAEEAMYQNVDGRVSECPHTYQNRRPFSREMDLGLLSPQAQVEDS

382 unique human kinases [7] = target: T7, 382 unique human kinases (Homo sapiens, UniProt P54764); conditions: EPHA4, [ATP] 30 µM, compound 10 uM; for remaining activity at 10 µM: read-out: % Enzyme Activity (relative to DMSO controls)
T7 construct: purchased Reaction Biology (HotSpot contract assay)

382 unique human kinases [8] = target: T8, 382 unique human kinases (Homo sapiens, UniProt Q8IYT8); conditions: ULK2, 10 uM; for remaining activity at 10 µM: read-out: % Enzyme Activity (relative to DMSO controls)
T8 construct: purchased Reaction Biology (HotSpot contract assay)
T8 sequence (Q8IYT8 1-1036): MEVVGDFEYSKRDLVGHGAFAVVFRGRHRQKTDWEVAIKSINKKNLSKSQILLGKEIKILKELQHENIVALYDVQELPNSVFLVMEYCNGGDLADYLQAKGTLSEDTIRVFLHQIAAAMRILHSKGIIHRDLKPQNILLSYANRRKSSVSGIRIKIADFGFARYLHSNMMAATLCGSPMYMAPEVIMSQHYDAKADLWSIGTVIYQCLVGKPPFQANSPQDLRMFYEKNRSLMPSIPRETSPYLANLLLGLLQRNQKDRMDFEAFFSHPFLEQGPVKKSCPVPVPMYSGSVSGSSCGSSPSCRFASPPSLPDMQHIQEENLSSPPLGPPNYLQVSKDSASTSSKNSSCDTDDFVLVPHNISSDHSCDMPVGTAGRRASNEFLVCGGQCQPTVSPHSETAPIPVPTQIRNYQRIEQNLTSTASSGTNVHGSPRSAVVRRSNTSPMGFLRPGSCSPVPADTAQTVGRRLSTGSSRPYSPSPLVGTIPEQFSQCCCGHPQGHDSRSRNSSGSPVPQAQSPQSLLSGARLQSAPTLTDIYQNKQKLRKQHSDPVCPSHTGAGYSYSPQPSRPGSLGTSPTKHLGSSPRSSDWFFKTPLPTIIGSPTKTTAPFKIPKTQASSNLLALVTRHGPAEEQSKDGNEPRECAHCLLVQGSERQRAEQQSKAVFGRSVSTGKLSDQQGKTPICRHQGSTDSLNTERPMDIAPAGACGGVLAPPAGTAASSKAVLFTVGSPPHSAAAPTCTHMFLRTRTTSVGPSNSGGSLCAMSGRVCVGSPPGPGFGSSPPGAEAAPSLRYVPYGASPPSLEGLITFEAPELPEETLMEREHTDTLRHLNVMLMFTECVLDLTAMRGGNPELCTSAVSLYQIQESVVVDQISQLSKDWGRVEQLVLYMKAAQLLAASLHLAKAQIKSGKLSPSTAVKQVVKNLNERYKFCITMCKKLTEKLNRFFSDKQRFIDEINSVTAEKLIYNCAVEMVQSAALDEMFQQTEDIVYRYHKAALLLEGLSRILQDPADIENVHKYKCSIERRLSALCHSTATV

T1 sequence (P07949 29-1114): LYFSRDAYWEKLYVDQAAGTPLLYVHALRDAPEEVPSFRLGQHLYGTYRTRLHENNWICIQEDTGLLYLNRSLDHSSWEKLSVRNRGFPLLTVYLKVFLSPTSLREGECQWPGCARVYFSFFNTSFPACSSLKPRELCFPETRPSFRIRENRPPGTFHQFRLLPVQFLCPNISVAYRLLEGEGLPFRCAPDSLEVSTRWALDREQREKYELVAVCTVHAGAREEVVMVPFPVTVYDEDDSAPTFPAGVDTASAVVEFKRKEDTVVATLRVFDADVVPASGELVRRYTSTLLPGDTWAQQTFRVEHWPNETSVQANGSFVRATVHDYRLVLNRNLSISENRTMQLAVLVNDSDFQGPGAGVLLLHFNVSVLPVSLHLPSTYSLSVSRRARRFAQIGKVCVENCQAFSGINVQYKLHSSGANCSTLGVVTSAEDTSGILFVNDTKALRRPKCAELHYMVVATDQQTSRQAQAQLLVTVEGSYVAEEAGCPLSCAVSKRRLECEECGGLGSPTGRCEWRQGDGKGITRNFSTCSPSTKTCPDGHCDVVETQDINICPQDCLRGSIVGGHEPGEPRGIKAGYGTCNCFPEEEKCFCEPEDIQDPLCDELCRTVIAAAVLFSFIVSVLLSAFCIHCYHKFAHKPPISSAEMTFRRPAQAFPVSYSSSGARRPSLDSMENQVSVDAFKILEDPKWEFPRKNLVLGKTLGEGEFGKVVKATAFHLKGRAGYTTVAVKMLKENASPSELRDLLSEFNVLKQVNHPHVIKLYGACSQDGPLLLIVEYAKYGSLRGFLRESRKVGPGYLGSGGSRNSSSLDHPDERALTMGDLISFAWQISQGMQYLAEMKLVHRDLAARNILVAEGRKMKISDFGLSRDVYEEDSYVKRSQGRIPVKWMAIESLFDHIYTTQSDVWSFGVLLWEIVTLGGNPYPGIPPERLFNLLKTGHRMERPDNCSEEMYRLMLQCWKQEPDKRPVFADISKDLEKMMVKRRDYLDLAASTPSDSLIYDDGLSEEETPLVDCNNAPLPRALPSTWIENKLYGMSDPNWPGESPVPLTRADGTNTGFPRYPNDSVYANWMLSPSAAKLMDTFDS
T7 sequence (P54764 20-986): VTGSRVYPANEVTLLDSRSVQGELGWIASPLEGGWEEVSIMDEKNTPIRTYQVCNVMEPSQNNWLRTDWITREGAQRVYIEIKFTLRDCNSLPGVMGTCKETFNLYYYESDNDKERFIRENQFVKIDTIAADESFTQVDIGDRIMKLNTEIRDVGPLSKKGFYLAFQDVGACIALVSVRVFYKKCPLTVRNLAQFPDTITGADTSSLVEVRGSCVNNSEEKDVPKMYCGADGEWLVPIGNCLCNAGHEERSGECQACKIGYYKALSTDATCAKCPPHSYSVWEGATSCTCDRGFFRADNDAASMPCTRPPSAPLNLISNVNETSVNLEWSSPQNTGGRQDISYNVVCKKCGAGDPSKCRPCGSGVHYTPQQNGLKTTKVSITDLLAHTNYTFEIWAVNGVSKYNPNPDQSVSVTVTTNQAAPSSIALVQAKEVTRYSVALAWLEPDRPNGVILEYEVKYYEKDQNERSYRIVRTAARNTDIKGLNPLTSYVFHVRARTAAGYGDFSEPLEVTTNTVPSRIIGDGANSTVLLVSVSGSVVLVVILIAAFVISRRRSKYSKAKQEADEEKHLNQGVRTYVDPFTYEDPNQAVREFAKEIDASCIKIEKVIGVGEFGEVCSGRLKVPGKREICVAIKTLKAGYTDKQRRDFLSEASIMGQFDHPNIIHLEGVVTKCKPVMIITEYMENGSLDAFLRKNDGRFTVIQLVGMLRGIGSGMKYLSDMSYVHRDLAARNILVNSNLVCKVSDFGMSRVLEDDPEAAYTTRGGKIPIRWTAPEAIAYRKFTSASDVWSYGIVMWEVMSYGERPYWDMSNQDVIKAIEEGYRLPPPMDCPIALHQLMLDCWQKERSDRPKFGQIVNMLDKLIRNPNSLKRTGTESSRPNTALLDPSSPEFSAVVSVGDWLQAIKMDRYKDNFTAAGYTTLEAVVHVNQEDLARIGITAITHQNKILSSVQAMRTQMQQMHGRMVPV
T4 sequence (Q76MJ5 35-926): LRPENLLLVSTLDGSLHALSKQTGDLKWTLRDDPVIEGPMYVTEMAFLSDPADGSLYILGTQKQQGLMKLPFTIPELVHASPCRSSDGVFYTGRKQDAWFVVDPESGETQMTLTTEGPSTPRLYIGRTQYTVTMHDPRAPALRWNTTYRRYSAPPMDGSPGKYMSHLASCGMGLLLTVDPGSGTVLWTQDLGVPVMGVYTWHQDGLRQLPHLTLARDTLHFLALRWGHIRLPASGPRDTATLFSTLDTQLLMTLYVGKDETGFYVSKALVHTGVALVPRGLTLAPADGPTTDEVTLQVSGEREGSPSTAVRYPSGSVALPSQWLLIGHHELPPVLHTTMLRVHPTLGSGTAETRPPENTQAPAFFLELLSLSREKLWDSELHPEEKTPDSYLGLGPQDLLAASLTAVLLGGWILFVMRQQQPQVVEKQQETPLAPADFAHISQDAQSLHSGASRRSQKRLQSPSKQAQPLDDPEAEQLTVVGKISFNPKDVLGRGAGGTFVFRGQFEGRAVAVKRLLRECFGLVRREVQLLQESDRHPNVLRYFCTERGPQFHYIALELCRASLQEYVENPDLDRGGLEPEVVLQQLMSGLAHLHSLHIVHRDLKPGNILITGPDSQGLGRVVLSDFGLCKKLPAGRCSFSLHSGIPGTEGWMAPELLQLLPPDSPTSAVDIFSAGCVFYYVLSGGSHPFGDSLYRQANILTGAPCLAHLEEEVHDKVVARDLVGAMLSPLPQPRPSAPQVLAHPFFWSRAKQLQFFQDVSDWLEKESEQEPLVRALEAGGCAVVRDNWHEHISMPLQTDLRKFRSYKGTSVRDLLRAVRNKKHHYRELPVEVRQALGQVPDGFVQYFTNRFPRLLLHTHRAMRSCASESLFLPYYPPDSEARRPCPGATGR
T2 sequence (P22607 23-806 G697C): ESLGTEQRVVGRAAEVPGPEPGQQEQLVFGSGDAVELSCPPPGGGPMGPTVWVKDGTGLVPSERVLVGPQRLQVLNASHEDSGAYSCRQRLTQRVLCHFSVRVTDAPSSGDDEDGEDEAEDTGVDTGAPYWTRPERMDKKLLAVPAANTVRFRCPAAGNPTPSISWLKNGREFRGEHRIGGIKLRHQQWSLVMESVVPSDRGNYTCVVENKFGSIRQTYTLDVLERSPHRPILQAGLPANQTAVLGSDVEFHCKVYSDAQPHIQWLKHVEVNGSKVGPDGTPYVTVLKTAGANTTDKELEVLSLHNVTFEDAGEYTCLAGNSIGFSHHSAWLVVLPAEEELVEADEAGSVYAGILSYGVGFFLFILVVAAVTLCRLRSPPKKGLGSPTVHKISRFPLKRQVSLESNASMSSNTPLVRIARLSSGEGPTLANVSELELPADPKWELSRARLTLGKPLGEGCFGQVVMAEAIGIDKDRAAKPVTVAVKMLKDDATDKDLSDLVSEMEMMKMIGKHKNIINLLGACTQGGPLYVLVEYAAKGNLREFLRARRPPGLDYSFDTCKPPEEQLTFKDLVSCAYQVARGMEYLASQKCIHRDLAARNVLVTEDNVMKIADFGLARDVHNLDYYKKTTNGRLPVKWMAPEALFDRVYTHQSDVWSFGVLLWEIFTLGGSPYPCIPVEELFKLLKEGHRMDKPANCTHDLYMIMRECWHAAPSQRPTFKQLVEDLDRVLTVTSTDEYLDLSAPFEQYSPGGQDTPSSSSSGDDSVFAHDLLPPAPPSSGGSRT
T3 sequence (Q13164 whole entry): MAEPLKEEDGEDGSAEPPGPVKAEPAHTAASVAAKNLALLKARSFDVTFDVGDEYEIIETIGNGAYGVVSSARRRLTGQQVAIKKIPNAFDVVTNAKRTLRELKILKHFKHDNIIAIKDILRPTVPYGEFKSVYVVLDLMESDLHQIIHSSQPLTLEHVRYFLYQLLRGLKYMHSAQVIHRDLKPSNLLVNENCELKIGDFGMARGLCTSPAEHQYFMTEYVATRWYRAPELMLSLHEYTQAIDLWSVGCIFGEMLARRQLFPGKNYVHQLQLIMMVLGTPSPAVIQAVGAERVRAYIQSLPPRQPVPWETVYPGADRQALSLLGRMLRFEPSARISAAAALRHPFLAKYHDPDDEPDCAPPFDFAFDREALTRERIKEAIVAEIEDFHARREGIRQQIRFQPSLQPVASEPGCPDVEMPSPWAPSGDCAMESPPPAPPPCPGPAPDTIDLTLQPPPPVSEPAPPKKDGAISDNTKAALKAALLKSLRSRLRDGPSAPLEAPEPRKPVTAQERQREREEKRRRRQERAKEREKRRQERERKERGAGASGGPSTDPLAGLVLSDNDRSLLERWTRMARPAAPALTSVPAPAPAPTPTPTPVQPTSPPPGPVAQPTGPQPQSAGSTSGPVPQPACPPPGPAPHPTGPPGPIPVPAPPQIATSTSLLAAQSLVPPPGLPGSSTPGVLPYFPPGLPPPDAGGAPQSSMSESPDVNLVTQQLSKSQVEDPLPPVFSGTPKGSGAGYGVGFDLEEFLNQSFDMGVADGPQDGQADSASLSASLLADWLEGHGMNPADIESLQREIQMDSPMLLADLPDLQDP

## CC(C)c1cc(-c2n[nH]c(=O)n2-c2ccc3c(ccn3C)c2)c(O)cc1O [Ganetespib (STA9090)]
382 unique human kinases [1]
  remaining activity at 10 µM: 84.5%
382 unique human kinases [2]
  remaining activity at 10 µM: 61.9%
382 unique human kinases [3]
  remaining activity at 10 µM: 91.3%
382 unique human kinases [4]
  remaining activity at 10 µM: 66.7%

## CC(C)c1cc(-c2n[nH]c(=O)n2-c2ccc3c(ccn3C)c2)c(O)cc1O [Ganetespib]
382 unique human kinases [5]
  remaining activity at 10 µM: 95.6%
382 unique human kinases [6]
  remaining activity at 10 µM: 30.4%
382 unique human kinases [7]
  remaining activity at 10 µM: 49%
382 unique human kinases [8]
  remaining activity at 10 µM: 107%

## CCNC(=O)c1noc(-c2cc(C(C)C)c(O)cc2O)c1-c1ccc(CN2CCOCC2)cc1 [Luminespib (AUY-922)]
382 unique human kinases [1]
  % Enzyme Activity (relative to DMSO controls): 94.03%
  remaining activity at 10 µM: 94.4%
382 unique human kinases [2]
  % Enzyme Activity (relative to DMSO controls): 102.74%
  remaining activity at 10 µM: 104%
382 unique human kinases [3]
  % Enzyme Activity (relative to DMSO controls): 86.48%
  remaining activity at 10 µM: 86.6%
382 unique human kinases [4]
  % Enzyme Activity (relative to DMSO controls): 105.69%
  remaining activity at 10 µM: 108%

## CCNC(=O)c1noc(-c2cc(C(C)C)c(O)cc2O)c1-c1ccc(CN2CCOCC2)cc1 [Luminespib]
382 unique human kinases [5]
  % Enzyme Activity (relative to DMSO controls): 90.73%
  remaining activity at 10 µM: 91.3%
382 unique human kinases [6]
  % Enzyme Activity (relative to DMSO controls): 80.03%
  remaining activity at 10 µM: 80.1%
382 unique human kinases [7]
  % Enzyme Activity (relative to DMSO controls): 90.78%
  remaining activity at 10 µM: 91.1%
382 unique human kinases [8]
  % Enzyme Activity (relative to DMSO controls): 104.48%
  remaining activity at 10 µM: 107%
